In patent US10202361B2, “Pyridazinones as herbicides” (E I DU PONT DE NEMOURS AND COMPANY, priority 2014, dated 2019):
Read-outs that look alike come from different tables or passages of the source.

How the values were obtained:
Assay type in all cases: in vivo
[1] = tested on: chickweed (common chickweed, Stellaria media); assay: Test C postemergence greenhouse herbicide test
Excerpt: (§1) At the same time, plants selected from these crop and weed species and also barley (winter barley, Hordeum vulgare), canarygrass (Phalaris minor), windgrass (Apera spica-venti), deadnettle (henbit deadnettle, Lamium amplexicaule), and chickweed (common chickweed, Stellaria media) were planted in pots containing Redi-Earth® planting medium (Scotts Company, 14111 Scottslawn Road, Marysville, Ohio 43041) comprising spaghnum peat moss, vermiculite, wetting agent and starter nutrients and treated with postemergence applications of test chemicals formulated in the same manner. Plants ranged in height from 2 to 18 cm (1- to 4-leaf stage) for postemergence treatments. Treated plants and controls were maintained in a greenhouse for 13 to 15 d, after which time all species were compared to controls and visually evaluated. Plant response ratings, summarized in Table C, are based on a scale of 0 to 100 where 0 is no effect and 100 is complete control. A dash (-) response means no test result.

[2] = tested on: nutsedge, yellow (yellow nutsedge, Cyperus esculentus); assay: Test C pre-/postemergence greenhouse herbicide test; details: Cyperus, Nutsedge, Yellow, read-out: Plant response rating; for pest or weed control at 31 g/ha: 31 g ai/ha; for pest or weed control at 62 g/ha: 62 g ai/ha; for pest or weed control at 125 g/ha: 125 g ai/ha; for pest or weed control at 250 g/ha: 250 g ai/ha
Excerpt: (§2) Seeds of plant species selected from blackgrass (Alopecurus myosuroides), bromegrass, downy (downy bromegrass, Bromus tectorum), foxtail, green (green foxtail, Setaria viridis), ryegrass, Italian (Italian ryegrass, Lolium multiflorum), wheat (winter wheat, Triticum aestivum), oat, wild (wild oat, Avena fatua), galium (catchweed bedstraw, Galium aparine), bermudagrass (Cynodon dactylon), surinam grass (Brachiaria decumbens), cocklebur (common cocklebur, Xanthium strumarium), corn (Zea mays), crabgrass, large (large crabgrass, Digitaria sanguinalis), cupgrass, woolly (woolly cupgrass, Eriochloa villosa), foxtail, giant (giant foxtail, Setaria faberii), goosegrass (Eleusine indica), johnsongrass (Sorghum halepense), kochia (Kochia scoparia), lambsquarters (Chenopodium album), morningglory (Ipomoea coccinea), nightshade (eastern black nightshade, Solanum ptycanthum), nutsedge, yellow (yellow nutsedge, Cyperus esculentus), pigweed (Amaranthus retroflexus), ragweed (common ragweed, Ambrosia elatior), soybean (Glycine max), sunflower (common oilseed sunflower, Helianthus annuus), Russian thistle (Salsola kali), barnyardgrass (Echinochloa crus-galli), oilseed rape (Brassica napus), waterhemp (common waterhemp, Amaranthus rudis), and velvetleaf (Abutilon theophrasti) were planted into a blend of loam soil and sand and treated preemergence with test chemicals formulated in a non-phytotoxic solvent mixture which included a surfactant.
as §1

[3] = tested on: johnsongrass (Sorghum halepense); assay: as above; details: Sorghum halepense, Johnsongrass, read-out: Plant response rating; for pest or weed control at 31 g/ha: 31 g ai/ha; for pest or weed control at 62 g/ha: 62 g ai/ha; for pest or weed control at 125 g/ha: 125 g ai/ha; for pest or weed control at 250 g/ha: 250 g ai/ha
Excerpt: as §2, §1

[4] = tested on: oat, wild (wild oat, Avena fatua); assay: as above
Excerpt: as §2, §1

[5] = tested on: ryegrass, Italian (Italian ryegrass, Lolium multiflorum); assay: as above; details: Lolium multiflorum, Ryegrass, Italian, read-out: Plant response rating; for pest or weed control at 31 g/ha: 31 g ai/ha; for pest or weed control at 62 g/ha: 62 g ai/ha; for pest or weed control at 125 g/ha: 125 g ai/ha; for pest or weed control at 250 g/ha: 250 g ai/ha
Excerpt: as §2, §1

kochia (Kochia scoparia) = assay: as above
Excerpt: as §2, §1

[6] = tested on: crabgrass, Large (large crabgrass, Digitaria sanguinalis); assay: as above; details: Digitaria sanguinalis, Crabgrass, Large, read-out: Plant response rating; for pest or weed control at 31 g/ha: 31 g ai/ha; for pest or weed control at 62 g/ha: 62 g ai/ha; for pest or weed control at 125 g/ha: 125 g ai/ha; for pest or weed control at 250 g/ha: 250 g ai/ha
Excerpt: as §2, §1

[7] = tested on: galium (catchweed bedstraw, Galium aparine); assay: as above; details: Galium, read-out: Plant response rating; for pest or weed control at 31 g/ha: 31 g ai/ha; for pest or weed control at 62 g/ha: 62 g ai/ha; for pest or weed control at 125 g/ha: 125 g ai/ha; for pest or weed control at 250 g/ha: 250 g ai/ha
Excerpt: as §2, §1

[8] = tested on: ragweed (common ragweed, Ambrosia elatior); assay: as above; details: Ambrosia artemisiifolia, Ragweed, read-out: Plant response rating; for pest or weed control at 31 g/ha: 31 g ai/ha; for pest or weed control at 62 g/ha: 62 g ai/ha; for pest or weed control at 125 g/ha: 125 g ai/ha; for pest or weed control at 250 g/ha: 250 g ai/ha
Excerpt: as §2, §1

corn (Zea mays) = assay: as above; details: Zea mays, Corn, read-out: Plant response rating; for plant injury at 31 g/ha: 31 g ai/ha; for plant injury at 62 g/ha: 62 g ai/ha; for plant injury at 125 g/ha: 125 g ai/ha; for plant injury at 250 g/ha: 250 g ai/ha
Excerpt: as §2, §1

[9] = tested on: pigweed (Amaranthus retroflexus); assay: as above; details: Amaranthus retroflexus, Pigweed, read-out: Plant response rating; for pest or weed control at 31 g/ha: 31 g ai/ha; for pest or weed control at 62 g/ha: 62 g ai/ha; for pest or weed control at 125 g/ha: 125 g ai/ha; for pest or weed control at 250 g/ha: 250 g ai/ha
Excerpt: as §2, §1

[10] = tested on: lambsquarters (Chenopodium album); assay: as above
Excerpt: as §2, §1

## Cc1cc(=O)n(-c2ccc(F)cc2)nc1Oc1ccnc(C(F)(F)F)c1 [Compound 14, 2-(4-fluorophenyl)-5-methyl-6-[[2-(trifluoromethyl)-4-pyridinyl]oxy]-3 (2H)-pyridazinone]
[1]; 31 g ai/ha
  Plant response rating: 35
[1]; 62 g ai/ha
  Plant response rating: 35
[1]; 125 g ai/ha
  Plant response rating: 35
[1]; 250 g ai/ha
  Plant response rating: 55
[2]; post-emergence, Postemergence
  pest or weed control at 31 g/ha: 5%
  pest or weed control at 62 g/ha: 5%
  pest or weed control at 125 g/ha: 5%
  pest or weed control at 250 g/ha: 10%
[2]; pre-emergence, Preemergence
  pest or weed control at 31 g/ha: 0%
  pest or weed control at 62 g/ha: 5%
  pest or weed control at 125 g/ha: 25%
  pest or weed control at 250 g/ha: 25%
[3]; post-emergence, Postemergence
  pest or weed control at 31 g/ha: 10%
  pest or weed control at 62 g/ha: 15%
  pest or weed control at 125 g/ha: 25%
  pest or weed control at 250 g/ha: 30%
[3]; pre-emergence, Preemergence
  pest or weed control at 31 g/ha: 5%
  pest or weed control at 62 g/ha: 35%
  pest or weed control at 125 g/ha: 35%
  pest or weed control at 250 g/ha: 85%
[4]; Postemergence, 31 g ai/ha
  Plant response rating: 20
[4]; Postemergence, 62 g ai/ha
  Plant response rating: 30
[4]; Postemergence, 125 g ai/ha
  Plant response rating: 30
[4]; Postemergence, 250 g ai/ha
  Plant response rating: 30
[4]; Preemergence, 31 g ai/ha
  Plant response rating: 0
[4]; Preemergence, 62 g ai/ha
  Plant response rating: 0
[4]; Preemergence, 125 g ai/ha
  Plant response rating: 65
[4]; Preemergence, 250 g ai/ha
  Plant response rating: 65
[5]; post-emergence, Postemergence
  pest or weed control at 31 g/ha: 5%
  pest or weed control at 62 g/ha: 5%
  pest or weed control at 125 g/ha: 10%
  pest or weed control at 250 g/ha: 25%
[5]; pre-emergence, Preemergence
  pest or weed control at 31 g/ha: 0%
  pest or weed control at 62 g/ha: 5%
  pest or weed control at 125 g/ha: 30%
  pest or weed control at 250 g/ha: 50%
Kochia (Kochia scoparia); Postemergence, 31 g ai/ha
  Plant response rating: 25
Kochia (Kochia scoparia); Postemergence, 62 g ai/ha
  Plant response rating: 35
Kochia (Kochia scoparia); Postemergence, 125 g ai/ha
  Plant response rating: 55
Kochia (Kochia scoparia); Postemergence, 250 g ai/ha
  Plant response rating: 80
Kochia (Kochia scoparia); Preemergence, 31 g ai/ha
  Plant response rating: 45
Kochia (Kochia scoparia); Preemergence, 62 g ai/ha
  Plant response rating: 75
Kochia (Kochia scoparia); Preemergence, 125 g ai/ha
  Plant response rating: 90
Kochia (Kochia scoparia); Preemergence, 250 g ai/ha
  Plant response rating: 90
[6]; post-emergence, Postemergence
  pest or weed control at 31 g/ha: 10%
  pest or weed control at 62 g/ha: 10%
  pest or weed control at 125 g/ha: 15%
  pest or weed control at 250 g/ha: 30%
[6]; pre-emergence, Preemergence
  pest or weed control at 31 g/ha: 80%
  pest or weed control at 62 g/ha: 100%
  pest or weed control at 125 g/ha: 100%
  pest or weed control at 250 g/ha: 100%
[7]; post-emergence, Postemergence
  pest or weed control at 31 g/ha: 50%
  pest or weed control at 62 g/ha: 55%
  pest or weed control at 125 g/ha: 55%
  pest or weed control at 250 g/ha: 75%
[7]; pre-emergence, Preemergence
  pest or weed control at 31 g/ha: 60%
  pest or weed control at 62 g/ha: 98%
  pest or weed control at 125 g/ha: 100%
  pest or weed control at 250 g/ha: 100%
[8]; post-emergence, Postemergence
  pest or weed control at 31 g/ha: 50%
  pest or weed control at 62 g/ha: 50%
  pest or weed control at 125 g/ha: 60%
  pest or weed control at 250 g/ha: 70%
[8]; pre-emergence, Preemergence
  pest or weed control at 31 g/ha: 5%
  pest or weed control at 62 g/ha: 15%
  pest or weed control at 125 g/ha: 30%
  pest or weed control at 250 g/ha: 55%
Corn (Zea mays); post-emergence, Postemergence
  plant injury at 31 g/ha: 20%
  plant injury at 62 g/ha: 35%
  plant injury at 125 g/ha: 40%
  plant injury at 250 g/ha: 40%
Corn (Zea mays); pre-emergence, Preemergence
  plant injury at 31 g/ha: 0%
  plant injury at 62 g/ha: 35%
  plant injury at 125 g/ha: 50%
  plant injury at 250 g/ha: 75%
[9]; post-emergence, Postemergence
  pest or weed control at 31 g/ha: 60%
  pest or weed control at 62 g/ha: 65%
  pest or weed control at 125 g/ha: 80%
  pest or weed control at 250 g/ha: 85%
[9]; pre-emergence, Preemergence
  pest or weed control at 31 g/ha: 100%
  pest or weed control at 62 g/ha: 100%
  pest or weed control at 125 g/ha: 100%
  pest or weed control at 250 g/ha: 100%
[10]; Postemergence, 31 g ai/ha
  Plant response rating: 40
[10]; Postemergence, 62 g ai/ha
  Plant response rating: 40
[10]; Postemergence, 125 g ai/ha
  Plant response rating: 45
[10]; Postemergence, 250 g ai/ha
  Plant response rating: 45
[10]; Preemergence, 31 g ai/ha
  Plant response rating: 55
[10]; Preemergence, 62 g ai/ha
  Plant response rating: 95
[10]; Preemergence, 125 g ai/ha
  Plant response rating: 95
[10]; Preemergence, 250 g ai/ha
  Plant response rating: 98
